How the values were obtained:
Format in all cases: in vivo
[1] = test system: sedge, umbrella (small-flower umbrella sedge, Cyperus difformis); assay: Test B flooded paddy test; settings: Cyperus difformis, 312 h, Flood, scale of 0 to 100, 0 is no effect, 100 is complete control, 13 to 15 d, read-out: Plant response rating, Sedge, Umbrella; for pest or weed control at 250 g/ha: 250 g ai/ha; for pest or weed control at 125 g/ha: 125 g ai/ha
In short: (§1)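 Visual ratings, 0 meaning no effect and 100 complete control, were made relative to untreated controls 13–15 d after treatment in a greenhouse. Treatment was by addition to paddy water 3 cm above the soil, maintained for the test, on 2-leaf-stage plants.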

[2] = test system: barnyardgrass (Echinochloa crus-galli); assay: Test B flooded paddy test; settings: Echinochloa crus-galli, 312 h, Flood, scale of 0 to 100, 0 is no effect, 100 is complete control, 13 to 15 d, read-out: Plant response rating, Barnyardgrass; for pest or weed control at 250 g/ha: 250 g ai/ha; for pest or weed control at 125 g/ha: 125 g ai/ha
In short: as §1

rice (Oryza sativa) = assay: Test B flooded paddy test; settings: Oryza sativa, 312 h, Flood, scale of 0 to 100, 0 is no effect, 100 is complete control, 13 to 15 d, read-out: Plant response rating, Rice; for plant injury at 250 g/ha: 250 g ai/ha; for plant injury at 125 g/ha: 125 g ai/ha
In short: as §1

[3] = test system: ducksalad (Heteranthera limosa); assay: Test B flooded paddy test; settings: Heteranthera limosa, 312 h, Flood, scale of 0 to 100, 0 is no effect, 100 is complete control, 13 to 15 d, read-out: Plant response rating, Ducksalad; for pest or weed control at 250 g/ha: 250 g ai/ha; for pest or weed control at 125 g/ha: 125 g ai/ha
In short: as §1

[4] = test system: velvetleaf (Abutilon theophrasti); assay: Test C pre-/postemergence greenhouse herbicide test; settings: Preemergence; for pest or weed control at 62 g/ha: 62 g ai/ha; for Plant response rating, Velvetleaf: visual rating on scale 0 (no effect) to 100 (complete control), 13 to 15 d
In short: (§2)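 Seeds in loam–sand blend sprayed preemergence, and 1- to 4-leaf plants (2–18 cm) sprayed postemergence, with compounds in non-phytotoxic solvent plus surfactant. Visual rating versus controls after 13–15 d in greenhouse, 0 (no effect) to 100 (complete control).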

[5] = test system: foxtail, giant (giant foxtail, Setaria faberii); assay: as above; settings: Preemergence; for Plant response rating, Foxtail, Giant: visual rating on scale 0 (no effect) to 100 (complete control), 13 to 15 d; for pest or weed control at 31 g/ha: 31 g ai/ha; for pest or weed control at 62 g/ha: 62 g ai/ha
In short: as §2

[6] = test system: ryegrass, Italian (Italian ryegrass, Lolium multiflorum); assay: as above; settings: Preemergence; for pest or weed control at 31 g/ha: 31 g ai/ha; for pest or weed control at 62 g/ha: 62 g ai/ha; for Plant response rating, Ryegrass, Italian: visual rating on scale 0 (no effect) to 100 (complete control), 13 to 15 d
In short: as §2

[7] = test system: galium (catchweed bedstraw, Galium aparine); assay: as above; settings: Preemergence; for Plant response rating, Galium: visual rating on scale 0 (no effect) to 100 (complete control), 13 to 15 d; for pest or weed control at 31 g/ha: 31 g ai/ha; for pest or weed control at 62 g/ha: 62 g ai/ha
In short: as §2

[8] = test system: morningglory (Ipomoea coccinea); assay: as above; settings: Preemergence; for Plant response rating: Morningglory; for Plant response rating, Morningglory: visual rating on scale 0 (no effect) to 100 (complete control), 13 to 15 d
In short: as §2

[9] = test system: oilseed rape (Brassica napus); assay: as above; settings: Preemergence; for Plant response rating: Oilseed Rape; for Plant response rating, Oilseed Rape: visual rating on scale 0 (no effect) to 100 (complete control), 13 to 15 d
In short: as §2

[10] = Abutilon theophrasti, pre-emergence, Velvetleaf, read-out: Plant response rating
[11] = Setaria faberi, pre-emergence, Foxtail, Giant, read-out: Plant response rating
[12] = Lolium multiflorum, pre-emergence, Ryegrass, Italian, read-out: Plant response rating
[13] = pre-emergence, Galium, read-out: Plant response rating

Row | SMILES | pest or weed control at 250 g/ha [1] [%] | pest or weed control at 250 g/ha [2] [%] | plant injury at 250 g/ha (rice (Oryza sativa)) [%] | pest or weed control at 250 g/ha [3] [%] | pest or weed control at 125 g/ha [1] [%] | pest or weed control at 125 g/ha [2] [%] | plant injury at 125 g/ha (rice (Oryza sativa)) [%] | pest or weed control at 125 g/ha [3] [%] | pest or weed control at 62 g/ha [4, 10] [%] | pest or weed control at 31 g/ha [5, 11] [%] | pest or weed control at 62 g/ha [5, 11] [%] | pest or weed control at 31 g/ha [6, 12] [%] | pest or weed control at 62 g/ha [6, 12] [%] | pest or weed control at 31 g/ha [7, 13] [%] | pest or weed control at 62 g/ha [7, 13] [%] | Plant response rating ([8]; 31 g ai/ha) | Plant response rating ([8]; 62 g ai/ha) | Plant response rating ([9]; 31 g ai/ha) | Plant response rating ([9]; 62 g ai/ha) | also measured
1 | Cc1cc(=O)n(-c2ccc(F)cc2)nc1Cn1ccc(C(F)(F)F)n1 [Compound 3, 2-(4-fluorophenyl)-5-methyl-6-[[3-(trifluoromethyl)-1H-pyrazol-1-yl]methyl]-3(2H)-pyridazinone] | 0 | 0 | 0 | 0 |  |  |  |  |  |  |  |  |  |  |  |  |  |  |  | 
2 | Cc1cc(=O)n(-c2ccc(C(F)(F)F)cc2)nc1Oc1ccnc(C(F)(F)F)c1 [Compound 5, 5-methyl-2-[4-(trifluoromethyl)phenyl]-6-[[2-(trifluoromethyl)-4-pyridinyl]oxy]-3(2H)-pyridazinone] |  |  |  |  | 80 | 55 | 55 | 75 |  |  |  |  |  |  |  |  |  |  |  | 
3 | CCOc1cc(=O)n(-c2ccc(F)cc2)nc1C(=O)c1ccnc(C(F)(F)F)c1 [Compound 22, 5-ethoxy-2-(4-fluorophenyl)-6-[[2-(trifluoromethyl)-4-pyridinyl]carbonyl]-3(2H)-pyridazinone] | 80 | 10 | 10 | 70 |  |  |  |  |  |  |  |  |  |  |  |  |  |  |  | 
4 | CCOc1cc(=O)n(-c2ccc(F)cc2)nc1C(O)c1ccnc(C(F)(F)F)c1 (stereo not drawn) [Compound 23, 5-ethoxy-2-(4-fluorophenyl)-6-[hydroxy[2-(trifluoromethyl)-4-pyridinyl]methyl]-3(2H)-pyridazinone] | 70 | 10 | 10 | 80 |  |  |  |  | 100 | 75 | 90 | 0 | 5 | 90 | 95 | 55 | 98 | 80 | 85 | Plant response rating, Velvetleaf ([4]; 8 g ai/ha): 0; Plant response rating, Velvetleaf ([4]; 16 g ai/ha): 15; Plant response rating, Foxtail, Giant ([5]; 8 g ai/ha): 5; Plant response rating, Foxtail, Giant ([5]; 16 g ai/ha): 55; Plant response rating, Ryegrass, Italian ([6]; 8 g ai/ha): 0; Plant response rating, Ryegrass, Italian ([6]; 16 g ai/ha): 0; Plant response rating, Galium ([7]; 8 g ai/ha): 85; Plant response rating, Galium ([7]; 16 g ai/ha): 85; Plant response rating, Morningglory ([8]; 8 g ai/ha): 10; Plant response rating, Morningglory ([8]; 16 g ai/ha): 20; Plant response rating, Oilseed Rape ([9]; 8 g ai/ha): 5; Plant response rating, Oilseed Rape ([9]; 16 g ai/ha): 5
5 | CCOc1cc(=O)n(-c2ccc(F)cc2)nc1Cc1ccnc(C(F)(F)F)c1 [Compound 25, 5-ethoxy-2-(4-fluorophenyl)-6-[[2-(trifluoromethyl)-4-pyridinyl]methyl]-3 (2H)-pyridazinone] |  |  |  |  | 75 | 0 | 0 | 0 | 100 | 100 | 100 | 20 | 40 | 85 | 90 | 95 | 95 | 50 | 95 | pest or weed control at 125 g/ha ([4]; Abutilon theophrasti, pre-emergence, Velvetleaf, 125 g ai/ha, read-out: Plant response rating): 70%; pest or weed control at 250 g/ha ([4]; Abutilon theophrasti, pre-emergence, Velvetleaf, 250 g ai/ha, read-out: Plant response rating): 95%; pest or weed control at 125 g/ha ([5]; Setaria faberi, pre-emergence, Foxtail, Giant, 125 g ai/ha, read-out: Plant response rating): 100%; pest or weed control at 250 g/ha ([5]; Setaria faberi, pre-emergence, Foxtail, Giant, 250 g ai/ha, read-out: Plant response rating): 100%; pest or weed control at 125 g/ha ([6]; Lolium multiflorum, pre-emergence, Ryegrass, Italian, 125 g ai/ha, read-out: Plant response rating): 90%; pest or weed control at 250 g/ha ([6]; Lolium multiflorum, pre-emergence, Ryegrass, Italian, 250 g ai/ha, read-out: Plant response rating): 90%; pest or weed control at 125 g/ha ([7]; pre-emergence, Galium, 125 g ai/ha, read-out: Plant response rating): 100%; pest or weed control at 250 g/ha ([7]; pre-emergence, Galium, 250 g ai/ha, read-out: Plant response rating): 100%; Plant response rating ([8]; 125 g ai/ha): 100; Plant response rating ([8]; 250 g ai/ha): 98; Plant response rating ([9]; 125 g ai/ha): 95; Plant response rating ([9]; 250 g ai/ha): 95

— patent publication US10202361B2, “Pyridazinones as herbicides” (E I DU PONT DE NEMOURS AND COMPANY, priority 2014, dated 2019)
